Laboratory results as given in patent publication US4643734A, “Lactide/caprolactone polymer, method of making the same, composites thereof, and prostheses produced therefrom” (Hexcel Corporation, priority 1983, dated 1987).

How the values were obtained:
Type in all cases: cell-based
[1] = system: Salmonella typhimurium TA 1537; test: Ames plate incorporation assay, TA1537
Experimental: (§1) A Salmonella/mammalian mutagenicity test was performed to determine if a saline extract of the polymer would cause mutagenic changes in histidine dependent mutant strains of Salmonella typhimurium. The method of Ames et al as reported in Methods for Detecting Carcinogens and Mutagens with the Salmonella/Mammalian Mutagenicity Test (1975) was employed.
(§2) Test sample--a polymer, saline (0.85%) extract was prepared by adding 4 grams of sample to 20 ml of saline and autoclaving at 121° C. for one hour.
(§3) Bacterial test strains--four strains of specially constructed histidine mutants of Salmonella typhimurium, TA 98, TA 100, TA 1535 and TA 1537, developed by Dr. B. Ames, University of California, Berkeley were employed.
(§4) Activation system--S-9 Activation Mix is composed mainly of the microsomal fraction from a rat liver homogenate. The S-9 mix was used for the detection of mutagenic properties that require metabolic biotransformation to their active mutagenic form. […]
(§5) Ames plate incorporation assay--the principle technique of the Ames test consists of a plate incorporation assay from which direct revertant colony counts are obtained from the test plates. […] Following a 48 hour incubation period at 30° C., the number of colonies in each test plate are recorded as revertant colonies for comparison with spontaneous revertant rates for each strain.

[2] = system: Salmonella typhimurium TA 1535; test: Ames plate incorporation assay, TA1535
Experimental: as §1, §2, §3, §4, §5

[3] = system: Salmonella typhimurium TA 100; test: Ames plate incorporation assay, TA100
Experimental: as §1, §2, §3
Activation system--S-9 Activation Mix is composed mainly of the microsomal fraction from a rat liver homogenate. The S-9 mix was used for the detection of mutagenic properties that require metabolic biotransformation to their active mutagenic form. S-9 mix employed was Aroclor 1254--induced(Litton Bionetics, Inc., Kensington, Md., Lot #REL 091).
Negative controls--the solvent elution vehicle was test with each bacterial strain to determine the number of spontaneous revertant colonies for each test population.
MDA requires metabolic activation to induce mutagenic results; therefore, it was tested (on strain TA 100 only) with and without S-9 mix to verify the bioactivation properties of the S-9 rat liver preparation.
Ames plate incorporation assay--the principle technique of the Ames test consists of a plate incorporation assay from which direct revertant colony counts are obtained from the test plates. Minimal nutrient agar plates are seeded with both a tester strain population and the test solution suspended together in a semi-solid overlay. Test plates are prepared providing for either the presence or absence of S-9 activation mix supplemented in the overlay. Following a 48 hour incubation period at 30° C., the number of colonies in each test plate are recorded as revertant colonies for comparison with spontaneous revertant rates for each strain.

[4] = system: Salmonella typhimurium TA 98; test: Ames plate incorporation assay, TA98
Experimental: as §1, §2, §3, §4, §5

CN(C)c1ccc(N=NS(=O)(=O)[O-])cc1.[Na+] [Dexon]
Number of Revertant Colonies (Average of Duplicate Plates) ([1]; TA1537, w/S-9): 230.0
Number of Revertant Colonies (Average of Duplicate Plates) ([1]; TA1537, without S-9): 216.0
Number of Revertant Colonies (Average of Duplicate Plates) ([2]; TA1535, w/S-9): 26.5
Number of Revertant Colonies (Average of Duplicate Plates) ([2]; TA1535, without S-9): 28.0
Number of Revertant Colonies (Average of Duplicate Plates) ([3]; TA100, w/S-9): 388.5
Number of Revertant Colonies (Average of Duplicate Plates) ([3]; TA100, without S-9): 377.0
Number of Revertant Colonies (Average of Duplicate Plates) ([4]; TA98, w/S-9): 430.0
Number of Revertant Colonies (Average of Duplicate Plates) ([4]; TA98, without S-9): 422.0

Nc1ccc(Cc2ccc(N)cc2)cc1 [MDA, methylene dianiline]
Number of Revertant Colonies (Average of Duplicate Plates) ([3]; TA100, w/S-9): 223.0
Number of Revertant Colonies (Average of Duplicate Plates) ([3]; TA100, without S-9): 73.0
